# Key:
# [1] = tested on: Calu-1, MDA-MB-453, and MIA PaCa-2 cell lines; assay: Cell viability after 5 days of treatment; format: cell-based; conditions: variety of different cell types
# Source text: FIG. 12 and Table 8 include cell viability data after treatment with heterobifunctional compound D-128, D129, or D-130. […] The compounds may be effective in multiple cell types.
# A375 = assay: Cell viability assay (CellTiter-Glo); format: cell-based; conditions: Homo sapiens, A-375, 120 h; A375, 5 days
# Description: (§1) A variety of cancer cell lines were treated with Palbociclib or selected heterobifunctional compounds for 5 days at indicated concentrations in FIG. 12.
# (§2) Cell Culture. LNCaP (clone FGC), Calu-1, MDA-MB-468, MDA-MB-453, NCI-H358, HCC1937, BT-549, HCT116, A375, SK-MEL-28, SK-N-SH, MIA PaCa-2, HS 578T, HCC827, MIA PaCa-2, and other cells were cultured at 37° C. with 5% CO2 in DMEM or RPMI 1640 Medium supplemented with 10% fetal bovine serum. Cells were authenticated using the short tandem repeat (STR) assays. Mycoplasma test results were negative.
# (§3) Cell viability assay. Cells were seeded at a density of 5000 cells per well in 96-well assay plates and treated with test compounds following a 11-point 3-fold serial dilution for 3-5 days. Three days later, cell viability was determined using the CellTiter-Glo Assay Kit according to the manufacturer's instructions. The dose-response curves were determined and IC50 values were calculated using the GraphPad Prism software following a nonlinear regression (least squares fit) method.
# BT-549 = assay: Cell viability assay (CellTiter-Glo); format: cell-based; conditions: Homo sapiens, 120 h; BT-549, 5 days
# Description: as §1, §2, §3
# HCC1937 = assay: Cell viability assay (CellTiter-Glo); format: cell-based; conditions: Homo sapiens, 120 h; HCC1937, 5 days
# Description: as §1, §2, §3
# HCC827 = assay: Cell viability assay (CellTiter-Glo); format: cell-based; conditions: Homo sapiens, 120 h; HCC827, 5 days
# Description: as §1, §2, §3
# HCT116 = assay: Cell viability assay (CellTiter-Glo); format: cell-based; conditions: Homo sapiens, HCT-116, 120 h; HCT116, 5 days
# Description: as §1, §2, §3
# Hs 578T = assay: Cell viability assay (CellTiter-Glo); format: cell-based; conditions: Homo sapiens, 120 h, 5 days
# Description: as §1, §2, §3
# MDAMB-468 = assay: Cell viability assay (CellTiter-Glo); format: cell-based; conditions: Homo sapiens, MDA-MB-468, 120 h; MDAMB-468, 5 days
# Description: as §1, §2, §3
# NCI-H358 = assay: Cell viability assay (CellTiter-Glo); format: cell-based; conditions: Homo sapiens, 120 h; NCI-H358, 5 days
# Description: as §1, §2, §3
# SK-MEL-28 = assay: Cell viability assay (CellTiter-Glo); format: cell-based; conditions: Homo sapiens, 120 h; SK-MEL-28, 5 days
# Description: as §1, §2, §3
# SK-N-SH = assay: Cell viability assay (CellTiter-Glo); format: cell-based; conditions: Homo sapiens, 120 h, 5 days
# Description: as §1, §2, §3
# Calu-1 = assay: Cell viability assay (CellTiter-Glo); format: cell-based; conditions: Homo sapiens, 120 h; Calu-1, 5 days
# Description: (§4) Calu-1, MDA-MB-453 or MIA PaCa-2 cancer cells were treated with Palbociclib or selected heterobifunctional compounds for 5 days at indicated concentrations following a 2-fold serial dilution.
# as §1, §2, §3
# MDAMB-453 = assay: Cell viability assay (CellTiter-Glo); format: cell-based; conditions: Homo sapiens, MDA-MB-453, 120 h; MDAMB-453, 5 days
# Description: as §4, §1, §2, §3
# MIA PaCa-2 = assay: Cell viability assay (CellTiter-Glo); format: cell-based; conditions: Homo sapiens, 120 h; MIA PaCa-2, 5 days
# Description: as §4, §1, §2, §3
# CDK4 = CDK4 (Homo sapiens (Human), UniProt P11802); assay: Immunoblot of CDK4 protein in Calu-1 cells; format: cell-based; conditions: indicated concentrations, 16 hours, immunoblot
# Description: Additional heterobifunctional compounds were designed and tested for their ability to target and degrade another two target proteins, CDK4 and CDK6. Calu-1 cells that express CDK4/6 proteins were treated with heterobifunctional compounds disclosed herein (D-44 to D-49) at indicated concentrations for 16 hours. Cells were collected, lysed and subject to immunoblotting using an antibody specific to CDK4, CDK6 or phosphorylated Rb proteins. Tubulin was included as the loading control. DMSO treatment was used as the negative control. […] In addition, Calu-1 cells were treated with 1 μM D-48 or D-49 for an indicated period of time. Subsequently, changes in CDK4 and CDK6 protein levels were measured by immunoblotting. […] These experiments highlight the ability of DDB1 binder derived heterobifunctional compounds to degrade multiple different target proteins, including but not limited to epigenetic target proteins, such as CBP and p300, and kinases, such as CDK4 and CDK6.
# P300 [2] = target: T1, P300 (Homo sapiens (Human), UniProt Q09472); assay: Immunoblot of P300 protein in LNCaP cells after compound treatment; format: cell-based
# Description: (§5) Experiments were performed to see if heterobifunctional compounds as described herein could degrade target proteins. Specific exemplary heterobifunctional compounds were characterized in LNCaP and Calu-1 cells. LNCaP cells that express P300/CBP proteins were treated with heterobifunctional compounds disclosed herein (D-2, D-13, or D-7) at indicated concentrations for 8 hours. Cells were collected, lysed and subject to immunoblotting using an antibody specific to P300 or CBP proteins. Vinculin was included as the loading control. DMSO treatment was used as the negative control. […] In addition, LNCaP cells were treated with 500 nM of D-2, or D-13 for indicated period of time. Subsequently, changes in P300 and CBP protein levels were measured by immunoblotting.
# CBP = CBP (Homo sapiens (Human), UniProt Q92793); assay: Immunoblot of CBP protein in LNCaP cells after compound treatment; format: cell-based
# Description: as §5
# P300 [3] = target: T1, P300; assay: Immunoblot of P300 in Calu-1 cells with co-administered proteasome, neddylation or DDB1-ligand competitor; format: cell-based
# Source text: The heterobifunctional compound-mediated p300 and CBP degradation was dependent on the ubiquitin-proteasome system and cullin E3 ligase. […] The binding with DDB1 also played a role in the heterobifunctional compounds ability to induce degradation of P300 and CBP proteins.
# Human DDB1 = Human DDB1 (Homo sapiens (Human), UniProt Q16531); assay: Surface plasmon resonance (SPR) binding assay to immobilized His-DDB1; conditions: SPR, DDB1 binding moieties with linkers and/or target protein binding moiety; read-out: Binding (Kd)
# Method in brief: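 Baculovirus-expressed His-DDB1 (High5 cells) amine-coupled to 11,000–13,000 RU on a CM5 chip; compounds injected in multi-cycle format without regeneration at 25° C in HBS-EP pH 7.4 (120 s association/dissociation). Double-referenced, solvent-corrected data fit to steady-state affinity model for KD.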
# [4] = indicated concentrations, 8 hours, immunoblot
# T1 sequence (Q09472 whole entry): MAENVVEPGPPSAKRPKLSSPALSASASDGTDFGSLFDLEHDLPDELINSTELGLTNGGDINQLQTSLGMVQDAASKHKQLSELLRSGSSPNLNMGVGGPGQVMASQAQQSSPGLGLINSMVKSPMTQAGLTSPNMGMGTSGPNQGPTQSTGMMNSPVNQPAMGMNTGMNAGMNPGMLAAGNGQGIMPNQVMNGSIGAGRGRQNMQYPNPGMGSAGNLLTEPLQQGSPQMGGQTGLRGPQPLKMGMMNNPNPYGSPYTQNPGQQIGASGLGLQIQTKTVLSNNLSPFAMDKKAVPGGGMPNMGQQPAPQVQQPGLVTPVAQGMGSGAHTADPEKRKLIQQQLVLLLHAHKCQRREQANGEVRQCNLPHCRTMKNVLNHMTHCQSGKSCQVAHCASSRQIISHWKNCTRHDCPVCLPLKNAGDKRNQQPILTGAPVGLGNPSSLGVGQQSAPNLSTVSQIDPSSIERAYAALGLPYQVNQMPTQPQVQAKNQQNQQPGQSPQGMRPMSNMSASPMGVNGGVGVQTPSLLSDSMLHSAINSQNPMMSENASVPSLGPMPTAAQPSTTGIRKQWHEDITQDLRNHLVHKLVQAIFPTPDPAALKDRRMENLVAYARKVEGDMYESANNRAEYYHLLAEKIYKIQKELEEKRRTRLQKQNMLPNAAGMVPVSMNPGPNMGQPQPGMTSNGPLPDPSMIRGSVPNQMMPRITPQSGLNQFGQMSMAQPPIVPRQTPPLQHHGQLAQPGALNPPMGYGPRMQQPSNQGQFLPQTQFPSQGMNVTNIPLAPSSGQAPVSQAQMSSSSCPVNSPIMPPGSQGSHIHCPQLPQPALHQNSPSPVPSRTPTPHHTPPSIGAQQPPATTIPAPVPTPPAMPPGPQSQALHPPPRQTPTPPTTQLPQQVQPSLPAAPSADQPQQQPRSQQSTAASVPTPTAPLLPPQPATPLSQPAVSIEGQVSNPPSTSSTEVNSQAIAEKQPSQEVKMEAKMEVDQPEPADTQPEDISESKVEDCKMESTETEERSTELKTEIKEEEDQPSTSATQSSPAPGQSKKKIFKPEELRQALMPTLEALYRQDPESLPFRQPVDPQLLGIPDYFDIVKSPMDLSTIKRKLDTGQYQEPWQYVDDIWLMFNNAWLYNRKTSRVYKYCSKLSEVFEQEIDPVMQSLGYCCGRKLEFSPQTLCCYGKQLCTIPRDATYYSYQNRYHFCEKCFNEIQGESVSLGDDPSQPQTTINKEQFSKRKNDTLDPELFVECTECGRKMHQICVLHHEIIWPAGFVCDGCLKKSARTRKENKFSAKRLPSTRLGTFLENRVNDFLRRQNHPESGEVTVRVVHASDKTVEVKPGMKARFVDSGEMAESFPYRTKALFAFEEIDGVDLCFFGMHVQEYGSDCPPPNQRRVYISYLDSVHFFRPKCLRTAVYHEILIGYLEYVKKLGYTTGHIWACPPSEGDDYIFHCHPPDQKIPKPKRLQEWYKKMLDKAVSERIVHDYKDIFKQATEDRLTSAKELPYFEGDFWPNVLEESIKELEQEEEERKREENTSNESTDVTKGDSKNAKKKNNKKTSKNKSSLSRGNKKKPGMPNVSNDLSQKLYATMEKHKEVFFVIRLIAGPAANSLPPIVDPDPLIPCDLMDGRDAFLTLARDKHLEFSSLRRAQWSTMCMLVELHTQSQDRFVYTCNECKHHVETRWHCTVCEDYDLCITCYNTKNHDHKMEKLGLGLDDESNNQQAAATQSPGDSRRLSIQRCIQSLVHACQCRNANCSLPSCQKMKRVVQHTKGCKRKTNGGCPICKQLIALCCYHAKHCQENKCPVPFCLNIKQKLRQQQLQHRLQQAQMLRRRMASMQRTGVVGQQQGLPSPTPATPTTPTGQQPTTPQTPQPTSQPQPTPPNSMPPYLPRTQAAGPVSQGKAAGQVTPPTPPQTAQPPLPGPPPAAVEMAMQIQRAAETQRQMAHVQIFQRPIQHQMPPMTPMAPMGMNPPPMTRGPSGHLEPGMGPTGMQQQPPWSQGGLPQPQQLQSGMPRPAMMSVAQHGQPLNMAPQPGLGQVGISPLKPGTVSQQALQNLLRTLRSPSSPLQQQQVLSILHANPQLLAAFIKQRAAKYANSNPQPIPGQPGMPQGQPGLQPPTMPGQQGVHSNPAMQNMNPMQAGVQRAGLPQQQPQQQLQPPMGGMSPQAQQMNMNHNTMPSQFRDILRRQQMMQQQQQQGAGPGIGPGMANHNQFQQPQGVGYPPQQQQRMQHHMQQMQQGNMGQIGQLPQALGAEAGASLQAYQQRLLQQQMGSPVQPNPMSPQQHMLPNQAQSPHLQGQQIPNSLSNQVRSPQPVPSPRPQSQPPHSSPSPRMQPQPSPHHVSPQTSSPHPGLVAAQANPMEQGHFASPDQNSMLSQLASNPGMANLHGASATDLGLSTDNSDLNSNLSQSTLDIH
# Sequence of Human DDB1 (Q16531 whole entry): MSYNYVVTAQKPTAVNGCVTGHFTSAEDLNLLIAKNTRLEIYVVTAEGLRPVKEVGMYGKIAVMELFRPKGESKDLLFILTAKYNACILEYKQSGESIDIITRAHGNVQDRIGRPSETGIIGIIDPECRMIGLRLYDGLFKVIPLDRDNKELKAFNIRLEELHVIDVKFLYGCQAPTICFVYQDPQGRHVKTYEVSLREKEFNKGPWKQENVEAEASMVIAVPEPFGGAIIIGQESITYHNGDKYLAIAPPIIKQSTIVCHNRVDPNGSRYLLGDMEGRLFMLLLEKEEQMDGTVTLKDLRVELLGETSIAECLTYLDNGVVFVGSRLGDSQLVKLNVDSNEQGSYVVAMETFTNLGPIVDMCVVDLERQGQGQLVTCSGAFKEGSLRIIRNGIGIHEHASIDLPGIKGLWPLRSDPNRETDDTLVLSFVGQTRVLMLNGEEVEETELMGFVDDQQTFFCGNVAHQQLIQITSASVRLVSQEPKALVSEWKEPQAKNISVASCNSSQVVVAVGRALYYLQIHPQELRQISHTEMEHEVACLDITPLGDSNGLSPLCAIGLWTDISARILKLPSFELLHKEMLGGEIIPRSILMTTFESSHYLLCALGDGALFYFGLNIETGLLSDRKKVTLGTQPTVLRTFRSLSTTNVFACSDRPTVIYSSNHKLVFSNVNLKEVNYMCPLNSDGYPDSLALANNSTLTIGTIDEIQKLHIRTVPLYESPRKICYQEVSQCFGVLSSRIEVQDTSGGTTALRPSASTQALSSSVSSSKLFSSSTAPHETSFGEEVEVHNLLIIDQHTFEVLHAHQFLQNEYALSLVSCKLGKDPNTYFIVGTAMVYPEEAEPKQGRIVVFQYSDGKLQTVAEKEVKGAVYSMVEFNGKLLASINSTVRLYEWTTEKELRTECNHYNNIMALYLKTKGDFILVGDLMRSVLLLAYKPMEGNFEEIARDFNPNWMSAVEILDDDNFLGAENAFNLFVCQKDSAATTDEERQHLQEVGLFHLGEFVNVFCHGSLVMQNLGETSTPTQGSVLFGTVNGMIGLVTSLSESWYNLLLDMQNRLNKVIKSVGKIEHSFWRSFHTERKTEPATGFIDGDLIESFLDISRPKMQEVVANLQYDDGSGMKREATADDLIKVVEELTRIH
# Sequence of CDK4 (P11802 whole entry): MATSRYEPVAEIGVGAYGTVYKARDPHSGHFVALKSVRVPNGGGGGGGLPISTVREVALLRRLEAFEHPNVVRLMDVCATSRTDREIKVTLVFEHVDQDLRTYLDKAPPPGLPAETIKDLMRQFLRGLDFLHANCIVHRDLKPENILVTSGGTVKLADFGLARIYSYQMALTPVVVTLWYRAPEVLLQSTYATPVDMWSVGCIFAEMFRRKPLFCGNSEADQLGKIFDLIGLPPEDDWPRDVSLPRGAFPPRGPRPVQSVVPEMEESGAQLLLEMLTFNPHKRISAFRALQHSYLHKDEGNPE
SMILES,reduction of cell viability compared to palbociclib [1],IC50 (A375) [nM],IC50 (BT-549) [nM],IC50 (HCC1937) [nM],IC50 (HCC827) [nM],IC50 (HCT116) [nM],IC50 (Hs 578T) [nM],IC50 (MDAMB-468) [µM],IC50 (NCI-H358) [nM],IC50 (SK-MEL-28) [nM],IC50 (SK-N-SH) [nM],IC50 (Calu-1) [nM],IC50 (MDAMB-453) [nM],IC50 (MIA PaCa-2) [nM],CDK4 protein levels (CDK4),Kd (Human DDB1) [µM],also measured
"CC(=O)c1c(C)c2cnc(Nc3ccc(N4CCN(CC(=O)NCCOCCOCCOCCOCCOCCOCCNc5ccc(C(=O)Nc6ncc([N+](=O)[O-])s6)c(C)c5)CC4)cn3)nc2n(C2CCCC2)c1=O [D-130, 4-((1-(4-(6-((6-Acetyl-8-cyclopentyl-5-methyl-7-oxo-7,8-dihydropyrido[2,3-d]pyrimidin-2-yl)amino)pyridin-3-yl)piperazin-1-yl)-2-oxo-6,9,12,15,18,21-hexaoxa-3-azatricosan-23-yl)amino)-2-methyl-N-(5-nitrothiazol-2-yl)benzamide]",more effective at lower doses than palbociclib,2000 to 10000,< 2000,< 2000,< 2000,< 2000,< 2000,2 to 10,< 2000,< 2000,< 2000,< 2000,< 2000,< 2000,–,–,–
"CC(=O)c1c(C)c2cnc(Nc3ccc(N4CCNCC4)cn3)nc2n(C2CCCC2)c1=O [palbociclib, reference compound]",–,2000 to 10000,> 10000,> 10000,> 10000,> 10000,2000 to 10000,> 10,> 10000,2000 to 10000,> 10000,> 10000,> 10000,2000 to 10000,didn't have a significant effect,–,–
"CC(=O)c1c(C)c2cnc(Nc3ccc(N4CCN(CC(=O)NCCOCCOCCOCCOCCNc5ccc(C(=O)Nc6ncc([N+](=O)[O-])s6)c(C)c5)CC4)cn3)nc2n(C2CCCC2)c1=O [D-128, 4-((1-(4-(6-((6-Acetyl-8-cyclopentyl-5-methyl-7-oxo-7,8-dihydropyrido[2,3-d]pyrimidin-2-yl)amino)pyridin-3-yl)piperazin-1-yl)-2-oxo-6,9,12,15-tetraoxa-3-azaheptadecan-17-yl)amino)-2-methyl-N-(5-nitrothiazol-2-yl)benzamide]",more effective at lower doses than palbociclib,< 2000,< 2000,< 2000,< 2000,< 2000,< 2000,2 to 10,< 2000,< 2000,< 2000,< 2000,< 2000,< 2000,–,–,–
"CC(=O)Nc1cc(NCCCCNC(=O)CN2CCC(n3nc(N4CCCc5cc(-c6cnn(C)c6)c(C(F)F)cc54)c4c3CCN(C(C)=O)C4)CC2)ccc1C(=O)Nc1ccc([N+](=O)[O-])s1 [D-13, 2-Acetamido-4-((4-(2-(4-(5-acetyl-3-(7-(difluoromethyl)-6-(1-methyl-1H-pyrazol-4-yl)-3,4-dihydroquinolin-1 (2H)-yl)-4,5,6,7-tetrahydro-1H-pyrazolo[4,3-c]pyridin-1-yl)piperidin-1-yl)acetamido)butyl)amino)-N-(5-nitrothiophen-2-yl)benzamide]",–,–,–,–,–,–,–,–,–,–,–,–,–,–,–,20 to 100,"time at which significant degradation of P300 was detected (P300 [2]; 500 nM, time course): 2 to 4 h; P300 protein levels (P300 [2]; [4]): significantly decreased in a concentration-dependent manner; time at which significant degradation of CBP was detected (CBP; 500 nM, time course): 2 to 4 h; CBP protein levels (CBP; [4]): significantly decreased in a concentration-dependent manner; compound-induced degradation under co-administration of MG-132 or bortezomib (BTZ), or MLN4924 (P300 [3]): compromised; compound-mediated degradation under co-administration with excess DDB1 ligand BL-11 (P300 [3]): partially neutralized"
"CC(=O)Nc1cc(NCCCCN)ccc1C(=O)Nc1nc(C)c([N+](=O)[O-])s1 [BL-11, 2-Acetamido-4-((4-aminobutyl)amino)-N-(4-methyl-5-nitrothiazol-2-yl)benzamide]",–,–,–,–,–,–,–,–,–,–,–,–,–,–,didn't have a significant effect,20 to 100,–
"CC(=O)c1c(C)c2cnc(Nc3ccc(N4CCN(CC(=O)NCCOCCOCCOCCOCCOCCNc5ccc(C(=O)Nc6ncc([N+](=O)[O-])s6)c(C)c5)CC4)cn3)nc2n(C2CCCC2)c1=O [D-129, 4-((1-(4-(6-((6-Acetyl-8-cyclopentyl-5-methyl-7-oxo-7,8-dihydropyrido[2,3-d]pyrimidin-2-yl)amino)pyridin-3-yl)piperazin-1-yl)-2-oxo-6,9,12,15,18-pentaoxa-3-azaicosan-20-yl)amino)-2-methyl-N-(5-nitrothiazol-2-yl)benzamide]",more effective at lower doses than palbociclib,< 2000,< 2000,< 2000,< 2000,< 2000,< 2000,2 to 10,< 2000,< 2000,< 2000,< 2000,< 2000,< 2000,–,–,–
